According to patent US20260366023A1, “SORTILIN INHIBITORS FOR TREATMENT OF PATIENTS WITH FUNCTIONAL NEUROENDOCRINE TUMORS” (priority 2023, published 2026):

Assays:
[1] = system: sortilin; settings: Schroder et al, 2014; cited from earlier work
[2] = system: BON neuroendocrine tumor cells; test: Serotonin (5HT) content of BON cell lysates after sortilin inhibition, HPLC; format: cell-based, human; settings: 10 μM; 23 h in serotonin free medium, then fresh inhibitor for two more hours; compared to control
Procedure: (§1) (A)-(D) BON neuroendocrine tumor cells were incubated for 23 h in serotonin free medium with (Sort Inh) or without (Control) the sortilin inhibitor AF38469 (10 μM). Afterwards, the serotonin (5HT, A), Tryptophan (TRP, B) and Tyrosin (TYR, C) content as well as the content of the serotonin metabolite 5-hydroxyindoleacetic acid (5-HIAA) in the cell culture supernatant was assessed using high performance liquid chromatography (HPLC). The cells were treated with fresh sortilin inhibitor for two more hours. Subsequently, the 5HT, (E, F), TRP, (G, H) and TYR (I, J) content in the cell lysates was measured in the presence or absence of the secretion inductor of monoamines Paramethoxyamphetamin (PMA) via HPLC as well.
(§2) Next, we wanted to analyze whether sortilin has a functional role in hormone production or secretion of neuroendocrine tumors. We focused on one of the most relevant functional syndromes, i. e. the carcinoid syndrome which is caused due to the overproduction and secretion of serotonin (Clement et al., 2020). […] Afterwards we measured the serotonin (5HT) content in the cell culture supernatant by using high performance liquid chromatography (HPLC) (FIG. 3A-D). […] Subsequently, the 5HT content in the cell lysates was measured by using HPLC as well (FIG. 3E-J).

[3] = system: murine intestinal organoids enriched with neuroendocrine cells; test: Serotonin content of murine intestinal organoids enriched with neuroendocrine cells, HPLC; format: cell-based; settings: 10 μM, four days, organoid lysates, vs control
Procedure: FIG. 7: Effect of sortilin inhibition on serotonin content of neuroendocrine organoids. (A) Experimental scheme for testing the effects of sortilin inhibition on serotonin levels in neuroendocrine organoids. Murine intestinal organoids are generated and enriched with neuroendocrine cells as previously described in (Kawasaki et al, 2018; Basak et al, 2017). […] Organoids are subsequently incubated four days in the absence (control) or the presence of the sortilin inhibitor AF38469 (10 μM). The lysates of these organoids are next harvested, and serotonin levels are measured by HPLC.
Some of these organoids were treated additionally four days with the sortilin inhibitor AF38469 (10 μM). Subsequently, the lysates of these organoids were harvested, and serotonin was measured by HPLC (FIG. 7A).

[4] = Schroder et al, 2014; cited from earlier work
[5] = system: BON cells; test: Alamar Blue cell proliferation/viability assay of BON cells after sortilin inhibition; format: cell-based, human; settings: 5 d of sortilin inhibition
Procedure: FIG. 4: Proliferation of BON cells after sortilin inhibition. To exclude the possibility of toxic effects of sortilin inhibition on BON cells, a cell proliferation assay was performed using the Alamar Blue cell viability assay 5 days after sortilin inhibition.
To exclude the possibility of toxic effects of sortilin inhibition on the BON cells and thereby reducing 5HT production, we performed a cell proliferation assay using Alamar Blue.

[6] = system: BON neuroendocrine tumor cells; test: Serotonin (5HT) content of BON cell culture supernatant (secretion) after sortilin inhibition, HPLC; format: cell-based, human
Procedure: as §1, §2

[7] = cited from earlier work
[8] = cited from earlier work; remark: listed apart in the source
[9] = system: sortilin; settings: Lee et al., 2014; cited from earlier work
[10] = system: sortilin; settings: Phase 2 and Phase 3 clinical trials, including NCT04374136, NCT03987295, NCT03636204 and NCT05053035; cited from earlier work

Cc1cccc(NC(=O)c2ccc(C(F)(F)F)cc2C(=O)O)n1 [AF38469, 2-[[(6-methyl-2-pyridinyl)amino]carbonyl]-5-(trifluoromethyl)-benzoic acid]
selectivity for sortilin over several of its naturally occurring ligands, including neurotensin-1 [1]: highly selective | cellular content of 5HT [2]: significantly lower | concentration of serotonin (5HT) per cell [3]: lower concentration | oral bioavailability [4]: orally bioavailable | reduction in cell proliferation [5]: could exclude any reduction in cell proliferation | concentration of 5HT in the supernatants ([6]; 10 μM, 23 h in serotonin free medium, HPLC): below the detection level | secretion of serotonin by NEN cells ([6]; NEN cells, summary statement referring to the Examples): suppress

Cc1cc(=O)oc2c(CN[C@@H](CC(C)C)C(=O)O)c(O)ccc12 [AF40431, (2S)-2-{[(7-hydroxy-4-methyl-2-oxo-2H-chromen-8-yl)methyl]amino}-4-methylpentanoic acid]
membrane permeability [7]: comparably poor | solubility [8]: comparably poor

Cc1ccc(C(C)(C)C)c(OCCN2CCCC(C)C2)c1 (stereo not drawn) [MPEP, 1-[2-(2-tert-butyl-5-methylphenoxy)-ethyl]-3-methylpiperidine]
degradation of sortilin [9]: increasing | sortilin protein levels [9]: suppressing

B1: AL001: anti-sortilin antibody; heavy chain having an amino acid sequence of SEQ ID NO: 1 and a light chain having an amino acid sequence of SEQ ID NO: 2 (antibody, chains of the INN, looked up, V domains shown)
VH: QVQLQESGPGLVKPSETLSLTCAVSGYSISSGYYWGWIRQPPGKGLEWIGTIYHSGSTYYNPSLKSRVTISVDTSKNQFSLKLSSVTAADTAVYYCARQGSIKQGYYGMDVWGQGTTVTVSS
VL: DIVMTQSPLSLPVTPGEPASISCRSSQSLLRSTGYNYLDWYLQKPGQSPQLLIYLGSNRASGVPDRFSGSGSGTDFTLKISRAEAEDVGVYYCMQQQEAPLTFGGGTKVEIK
treatment of frontotemporal dementia and/or ALS [10]: successfully tested
